Test results from patent US12082933B2, “Methods of using brain temporal dynamics” (priority 2016, dated 2024).

What was measured:
[1] = Open-label 8-week escitalopram treatment trial, depressive symptoms by MADRS; assay type: in vivo, human; settings: escitalopram 10-20 mg daily, week 8
From the text: 95 participants were included in this study. Data were collected as part of the CAN-BIND 1 project (Lam et al., 2016). Participants were outpatients aged 18-60 years of age, and met DSM-IV-TR (2000) criteria for major depressive episode (MDE) in MDD, confirmed by the Mini international Neuropsychiatric inventory (MINI) (Sheehan et al., 1998). Data were gathered across four study sites: University Health Network, Centre for Addiction and Mental Health in Toronto, Queen's University in Kingston, Ontario, Canada, and University of British Columbia in Vancouver, British Columbia, Canada. Study procedures were approved by research ethics institutional review boards at each site. All participants signed written informed consent prior to participation. At study enrollment, all participants were experiencing a MDE duration≥3 months with a Montgomery Asberg Depression Rating Scale (MAD RS) score≥24. All participants were free of psychotropic medications for at least 5 half-lives before baseline Visit 1. Participants were excluded if they had: 1) any Axis I diagnosis other than MDD, that was considered the primary diagnosis; 2) diagnosis of Bipolar Disorder Type I or II; 3) a significant Axis II diagnosis (borderline, antisocial); 4) high suicidal risk, 5) substance dependence/abuse in the past 6 months; 6) presence of significant neurological disorders, 7) head trauma, or 8) other unstable medical condition. Exclusionary criteria related to the medications included: having failed four or more adequate pharmacological interventions, having started psychological treatment within the past 3 months with the intent of continuing the treatment, previously having failed escitalopram treatment or showing intolerance to escitalopram, and being at risk for hypomanic switch (i.e. with a history of antidepressant induced hypomania). In addition, female participants who were pregnant or breastfeeding were excluded. […] The study period was eight weeks and participants were assessed with MADRS every 2 weeks starting from before administration of study medication (baseline). […]

[2] = Resting-state eyes closed EEG multi-scale entropy (MSE) during escitalopram treatment; assay type: in vivo, human
Method: Subjects were instructed to sit quietly in a testing room, while 8 minute of resting-state eyes closed EEG were recorded. Subjects were instructed to remain still, reduce eye blinks or movement to a minimum, and refrain from falling asleep.
Data were imported into MATLAB (The Math Works. Inc. Natick, MA, USA) for preprocessing. The open source EEGLAB toolbox version 12.0 (Delorme and Makeig, 2004) were used for data import. The EEG signals were epoched into segments of two seconds duration. Then a standardized custom-made and stream-lined open source software develop by our team, EEGERP toolbox (http:www.tmseeg.com/multisiteprojects), was used to preprocess the data in 6 steps as described elsewhere (Farzan et al., 2017). All data were brought down to sampling rate of 512 Hz for consistency across all sites, and average re-referenced in the final preprocessing step.
MSE was examined identical to a prior publication (Farzan et al., Brain 2016). […] First, for a given time series {xi,x2, . . . xN}, the multiple coarse-grained time series {y1^(τ), y2^(τ), . . . , yN^(τ)} at scale factor τ were calculated by averaging the data points within non-overlapping windows of increasing length τ. Each element of the coarse-grained time series yj^(τ), was calculated according to the equation:
[formula] […] Second, the degree of predictability was measured for each of the multiple coarse-grained time series {y1^(τ), y2^(τ), . . . , yN^(τ)} using SampleEn. SampleEn was calculated according to the equation: SampleEn(r,m,M)=−In(C(m+1)/C(m)) (2) where C(m) is the total number of pairs of in consecutive similar data points, C(m+1) is the total number of pairs of m+1 consecutive similar data points in the multiple coarse-grained time series. SampleEn quantifies the variability of time series by estimating the predictability of amplitude patterns across a time series. […] MSE was calculated for a 30 second continuous epoch.” […]

[3] = six months of treatment; specifically in younger adults; cited from earlier work

| SMILES | MADRS Post Week8 (mean +/− std) ([1]; All Groups (n = 95)) | MADRS Post Week8 (mean +/− std) ([1]; Non-responders (n = 50)) | MADRS Post Week8 (mean +/− std) ([1]; Responders (n = 45)) | Change in MSE pre (baseline) to post treatment (week 8) ([2]; non-responders) | Change in MSE at week 2 relative to pre treatment (baseline) ([2]; non-responders, scale factor>18, lateral frontal, fronto-temporal, parieto-occipital regions, clusters p<0.05) | Change in MSE pre (baseline) to post treatment (week 8) ([2]; responders, fronto-parietal brain regions, cluster p=0.09) | Effect on excess complexity (Lempel-Ziv Complexity) in depression [3] |
| --- | --- | --- | --- | --- | --- | --- | --- |
| CN(C)CCC[C@@]1(c2ccc(F)cc2)OCc2cc(C#N)ccc21 [Escitalopram] | 15.4 +/− 9.7 | 22.3 +/− 7.18 | 7.62 +/− 5.24 | No significant changes | reduction of MSE in coarse time-scales | reduction of MSE in fine time-scales | – |
| CN1CCN2c3ncccc3Cc3ccccc3C2C1 (stereo not shown) [mirtazapine] | – | – | – | – | – | – | normalized the excess complexity in depression |
